Values of other authors, collected in PMC4284021 (The Journal of Pharmacy and Pharmacology, 2014).

Legend:
patients [1] = conditions: cited from earlier work
patients [2] = conditions: cited from earlier work; remark: listed apart in the source
[3] = system: CYP11B1 (steroid 11 β-hydroxylase) and CYP11B2 (aldosterone synthase); conditions: branched DNA analysis; cited from earlier work
patients [4] = conditions: cited from earlier work; remark: listed apart in the source
CETP = conditions: cited from earlier work

CCC(CC)CC1(C(=O)Nc2ccccc2SC(=O)C(C)C)CCCCC1 [dalcetrapib]
mean systolic blood pressure higher than in the placebo group (patients [1]): approximately 0.6 mmHg

CCOC(=O)N1c2ccc(C(F)(F)F)cc2[C@@H](N(Cc2cc(C(F)(F)F)cc(C(F)(F)F)c2)C(=O)OC)C[C@H]1CC [torcetrapib]
blood pressure and aldosterone levels (patients [2]): increases in blood pressure and aldosterone levels
mortality and CV events (patients [2]): excess risk
expression of genes regulating CYP11B1 and CYP11B2 [3]: induced expression

COc1cc(F)c(C(C)C)cc1-c1ccc(C(F)(F)F)cc1CN1C(=O)O[C@H](c2cc(C(F)(F)F)cc(C(F)(F)F)c2)[C@@H]1C [anacetrapib]
plasma concentrations after cessation of treatment (patients [4]; 12 weeks after cessation): significant plasma concentrations
changes in blood pressure or electrolyte or aldosterone levels (patients [4]; through 76 weeks): no changes were noted
time of peak CETP inhibition after dosing (CETP): 4 h
